The target of this assay is T1, mAChR M1 (UniProt P11229).
T1 sequence (P11229 1-460): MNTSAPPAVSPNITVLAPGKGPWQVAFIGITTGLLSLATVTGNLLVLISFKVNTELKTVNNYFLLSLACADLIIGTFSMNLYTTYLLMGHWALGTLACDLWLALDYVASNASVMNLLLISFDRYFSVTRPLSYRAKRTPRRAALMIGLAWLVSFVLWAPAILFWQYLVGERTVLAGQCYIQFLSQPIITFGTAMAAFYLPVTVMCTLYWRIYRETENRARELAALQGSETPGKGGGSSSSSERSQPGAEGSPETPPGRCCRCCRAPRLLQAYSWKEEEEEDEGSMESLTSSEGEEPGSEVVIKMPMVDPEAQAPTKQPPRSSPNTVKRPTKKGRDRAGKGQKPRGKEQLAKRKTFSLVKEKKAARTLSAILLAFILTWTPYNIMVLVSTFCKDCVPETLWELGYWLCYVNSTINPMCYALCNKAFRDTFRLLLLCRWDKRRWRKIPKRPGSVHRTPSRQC
As to the kind of experiment: mAChR M1 cell-based functional assay (calcium mobilization, potentiation of EC20 acetylcholine response). Particulars: for Emax (%): % ACh maximum at 30 μM, mAChR M1-expressing CHO-K1 cells, calcium flux; for pEC50 / EC50: positive allosteric modulation of EC20 ACh response, mAChR M1 CHO-K1 cells; for pEC50: <5 estimated where no plateau; for EC50: >10 μM estimated where no plateau. Here is the method: Chinese hamster ovary (CHO-K1) cells stably expressing rat (r)M1 were purchased from the American Type Culture Collection and cultured according to their indicated protocol. […] To make stable rM2, hM2, rM3, hM4, and rM4 cell lines for use in calcium mobilization assays, these cells also were stably transfected with a chimeric G-protein (Gqi5) (provided by B. R. Conklin, University of California, San Francisco) using Lipofectamine 2000. rM1, hM1, rM3, hM3, rM5, and hM5 cells were grown in Ham's F-12 medium containing 10% heat-inactivated fetal bovine serum (FBS), 20 mM HEPES, and 50 μg/mL G418 sulfate. rM2-Gqi5, hM2-Gqi5, and hM4-Gqi5 cells were grown in the same medium also containing 500 μg/mL Hygromycin B. Stable rM4-Gqi5 cells were grown in DMEM containing 10% heat-inactivated FBS, 20 mM HEPES, 400 μg/mL G418 sulfate, and 500 μg/mL Hygromycin B.
For high throughput measurement of agonist-evoked increases in intracellular calcium, CHO-K1 cells stably expressing muscarinic receptors were plated in growth medium lacking G418 and hygromycin at 15,000 cells/20 μL/well in Greiner 384-well black-walled, tissue culture (TC)-treated, clear-bottom plates (VWR). Cells were incubated overnight at 37° C. and 5% CO2. […] Compound master plates were formatted in an 11 point CRC format (1:3 dilutions) in 100% DMSO with a starting concentration of 10 mM using the BRAVO liquid handler (Agilent). Test compound CRCs were then transferred to daughter plates (240 nL) using the Echo acoustic plate reformatter (Labcyte, Sunnyvale, Calif.) and then diluted into assay buffer (40 μL) to a 2× stock using a Thermo Fisher Combi (Thermo Fisher Scientific, Waltham, Mass.).
Calcium flux was measured using the Functional Drug Screening System (FDSS) 6000 (Hamamatsu Corporation, Tokyo, Japan) as an increase in the fluorescent static ratio. Compounds were applied to cells (20 μL, 2×) using the automated system of the FDSS 6000 at 4 s into the 300 s protocol and the data were collected at 1 Hz. […] Agonist activity was analyzed as a concentration-dependent increase in calcium mobilization upon compound addition. Positive allosteric modulator activity was analyzed as a concentration-dependent increase in the EC20 acetylcholine response. Antagonist activity was analyzed as a concentration-dependent decrease in the EC80 acetylcholine response. Concentration-response curves were generated using a four-parameter logistical equation in XLfit curve fitting software (IDBS, Bridgewater, N.J.) for Excel (Microsoft, Redmond, Wash.) or Prism (GraphPad Software, Inc., San Diego, Calif.).
The above described assay was also operated in a second mode where an appropriate fixed concentration of the present compounds were added to the cells after establishment of a fluorescence baseline for about 3 seconds, and the response in cells was measured. […] Data were reduced as described above and the EC50 values for the agonist in the presence of test compound were determined by nonlinear curve fitting. A decrease in the EC50 value of the agonist with increasing concentrations of the present compounds (a leftward shift of the agonist concentration-response curve) is an indication of the degree of muscarinic positive allosteric modulation at a given concentration of the present compound. An increase in the EC50 value of the agonist with increasing concentrations of the present compounds (a rightward shift of the agonist concentration response curve) is an indication of the degree of muscarinic antagonism at a given concentration of the present compound. The second mode also indicates whether the present compounds also affect the maximum response of the muscarinic receptor to agonists.
The calcium mobilization assay was also used to determine “efficacy”.

Like-named read-outs stand apart in the source and are kept apart here.

By pEC50 is commonly meant −log10 of the EC50, conventionally taken in molar units. What is called EC50 is the concentration that produces a half-maximal response.

Consider `O=C1c2cccnc2CN1Cc1c(F)cc(-c2cccc3ncccc23)cc1F` [Example B95], for which the “Emax (%)” value is 53% and the pEC50 was <5.00. Also, the EC50 (read-out: EC50) is > 10000 nM.
In the same order, the values of `Cn1cc(-c2cnc(CN3Cc4ccccc4C3=O)c(F)c2)cn1` [Example B21] are 43%, <5.00 and > 10000 nM.
In the same order, the values of `Cn1ccc2ccc(-c3ccc(CN4Cc5ccccc5C4=O)c(F)c3)cc21` [Example B10] are 62%, 5.51 and 3100 nM.
Taken in the same sequence, the figures for `O=C1c2cccnc2CN1Cc1c(F)cc(-c2ccc3nccn3c2)cc1F` [Example B80] were 57%, 6.07 and 851 nM.
On to `O=C1c2cccnc2CN1Cc1ccc(-c2ccnc3ccccc23)cc1F` [Example B45], for which the “Emax (%)” value worked out at 44% and the pEC50 is 5.43. The EC50 (read-out: EC50) is 3720 nM.
For `Cc1noc(-c2ccc(CN3Cc4ccccc4S3(=O)=O)cc2)n1` [Example B118], the “Emax (%)” value is recorded as <30% and the pEC50 was <5.00. Further, the EC50 (read-out: EC50) was > 10000 nM.
For the molecule `CN1CCc2cc(-c3cc(F)c(CN4Cc5ncccc5C4=O)c(F)c3)ccc21` [Example B103], the “Emax (%)” value is listed as 56% and the pEC50 is on record as 5.83. Also, the EC50 (read-out: EC50) is 1480 nM.
Taken in the same sequence, the figures for `Cn1cc(-c2ccc(CN3Cc4ccccc4C3=O)c(C(F)(F)F)c2)cn1` [Example B12] were 36%, 5.42 and 3800 nM.
Taken in the same sequence, the figures for `O=C1c2cccnc2CN1Cc1c(F)cc(-c2cccc3cnccc23)cc1F` [Example B99] were 41%, <5.00 and > 10000 nM.
`Cn1cc(-c2ccc(CN3Cc4ccncc4C3=O)c(F)c2)cn1` [Example B8]: the “Emax (%)” value is on record as 79% and the pEC50 was 5.55. For the setting “read-out: EC50”, the EC50 is 2800 nM.
With `O=C1c2ccccc2CN1Cc1ccc(-n2cncn2)cc1F` [Example B126], the “Emax (%)” value was <30% and the pEC50 is reported as <5.00. Also, for the setting “read-out: EC50”, the EC50 was > 10000 nM.
Taken in the same sequence, the figures for `O=C1c2ccccc2CN1Cc1ccc(-n2ccnc2)cc1F` [Example B22] were 51%, <5.00 and > 10000 nM.
Taken in the same sequence, the figures for `CN(C)c1ccc(-c2ccc(CN3Cc4ncccc4C3=O)c(F)c2)cn1` [Example B39] were 31%, 5.98 and 1050 nM.
In the same order, the values of `O=C1c2cccnc2CN1Cc1c(F)cc(-c2ccc3ncccc3c2)cc1F` [Example B96] are 54%, 6.56 and 275 nM.
Consider `O=C1c2cccnc2CN1Cc1ccc(-c2cncc(Cl)c2)cc1F` [Example B31], for which the “Emax (%)” value stood at 35% and the pEC50 is recorded as 5.34. Besides, the EC50 (read-out: EC50) is 4570 nM.
In the same order, the values of `CN1CC=C(c2ccc(CN3Cc4ncccc4C3=O)c(F)c2)CC1` [Example B53] are 80%, 5.51 and 3090 nM.
Taken in the same sequence, the figures for `O=S1(=O)c2ccccc2CN1Cc1ccc(Oc2ccccc2)cc1` [Example B124] were <30%, <5.00 and > 10000 nM.
Taken in the same sequence, the figures for `Cn1cc(-c2ccc(CN3Cc4ncccc4C3=O)c(F)c2)cn1` [Example B9] were 83%, 5.55 and 2800 nM.
Regarding `O=C1c2cccnc2CN1Cc1ccc(-c2ccc(Cl)nc2)cc1F` [Example B30], the “Emax (%)” value is reported as 40% and the pEC50 is reported as 5.46. Also, the EC50 (read-out: EC50) was 3470 nM.
Taken in the same sequence, the figures for `Cn1cc2cc(-c3cc(F)c(CN4Cc5ncccc5C4=O)c(F)c3)ccc2n1` [Example B51] were 73%, 6.59 and 257 nM.
In the same order, the values of `Cc1n[nH]c2ccc(-c3cc(F)c(CN4Cc5ncccc5C4=O)c(F)c3)cc12` [Example B102] are 68%, 6.91 and 123 nM.
Consider `O=C1Cc2cc(-c3ccc(CN4Cc5ncccc5C4=O)c(F)c3)ccc2N1` [Example B86], for which the “Emax (%)” value was 58% and the pEC50 is listed as 6.25. Also, the EC50 (read-out: EC50) was 562 nM.
Take `Cc1nn(C)cc1-c1ccc(CN2Cc3ccccc3C2=O)c(F)c1` [Example B2]: the “Emax (%)” value is 78% and the pEC50 is 5.82. Also, the EC50 (read-out: EC50) is 1500 nM.
In the same order, the values of `Cn1ncc2cc(-c3ccc(CN4Cc5ncccc5C4=O)c(F)c3)ccc21` [Example B27] are 58%, 6.1 and 794 nM.
As for `Cn1cc2ccc(-c3ccc(CN4Cc5ncccc5C4=O)c(F)c3)cc2n1` [Example B35], the “Emax (%)” value was 80% and the pEC50 is on record as 5.71. In addition, the EC50 (read-out: EC50) is 1950 nM.
In the same order, the values of `O=C1c2cccnc2CN1Cc1ccc(-c2cccnc2)cc1F` [Example B47] are 54%, 5.22 and 6030 nM.
Taken in the same sequence, the figures for `O=C1c2ccccc2CN1Cc1ccc(-c2ccc3cnccc3c2)cc1F` [Example B6] were 38%, 5.59 and 2600 nM.
Take `Cn1cc(-c2ccc(CN3Cc4ccccc4S3(=O)=O)c(F)c2)cn1` [Example B23]: the “Emax (%)” value came to 63% and the pEC50 is given as <5.00. The EC50 (read-out: EC50) was > 10000 nM.
For the molecule `Cn1cc2c(-c3ccc(F)c(CN4Cc5ncccc5C4=O)c3)cccc2n1` [Example B110], the “Emax (%)” value was determined as 61% and the pEC50 is on record as 5.71. Besides, the EC50 (read-out: EC50) is 1950 nM.
In the same order, the values of `Cc1cc(-c2ccncc2)ccc1CN1Cc2cccnc2C1=O` [Example B84] are 41%, <5.00 and > 10000 nM.
In the same order, the values of `Cc1nc(-c2ccc(CN3Cc4ccccc4S3(=O)=O)cc2)cs1` [Example B116] are <30%, <5.00 and > 10000 nM.
Take `CN1CCc2cc(-c3ccc(CN4Cc5ncccc5C4=O)c(F)c3)ccc21` [Example B55]: the “Emax (%)” value stood at 60%, the pEC50 is 5.64 and the EC50 was 2290 nM.
With `Cc1cc(-c2ccc(CN3Cc4ncccc4C3=O)c(F)c2)cnc1Cl` [Example B46], the “Emax (%)” value is reported as 33% and the pEC50 was 5.99. For the same molecule, for the setting “read-out: EC50”, the EC50 is 1020 nM.

Source of the values: patent US10654847B2, “Substituted 2-(4-heterocyclylbenzyl)isoindolin-1-one analogs as positive allosteric modulators of the muscarinic acetylcholine receptor M1” (Vanderbilt University, priority 2011, dated 2020).
